Source: PubChem BioAssay AID328 (DTP/NCI, 2004)
“And” between values parts separate entries of the source, which are not always exact repeats. Equal entries are not always repeated. Inconclusive results and toxic doses are left out.

System: BDF1 mice, P388 leukemia ip, median survival T/C
Experiment: NCI In Vivo Anticancer Drug Screen. Data for tumor model P388 Leukemia (intraperitoneal) in B6D2F1 (BDF1) mice
Details: endpoint: median survival time, higher = longer survival
Summary of the method: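 Reported as T/C, where T is the survival measurement in dosed animals and C the same measurement in vehicle controls.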

[1] = dose: 25.0 mg/kg/injection, schedule: Q04DX003 (ip), vehicle: saline with Tween-80
[2] = dose: 50.0 mg/kg/injection, schedule: Q04DX003 (ip), vehicle: saline with Tween-80
[3] = dose: 100.0 mg/kg/injection, schedule: Q04DX003 (ip), vehicle: saline with Tween-80
[4] = dose: 200.0 mg/kg/injection, schedule: Q04DX003 (ip), vehicle: saline with Tween-80
[5] = dose: 200.0 mg/kg/injection, schedule: Q04DX003 (ip), vehicle: saline
[6] = dose: 400.0 mg/kg/injection, schedule: Q04DX003 (ip), vehicle: Klucel (hydroxypropylcellulose) (HPC)
[7] = dose: 400.0 mg/kg/injection, schedule: Q04DX003 (ip), vehicle: saline
[8] = dose: 50.0 mg/kg/injection, schedule: Q01DX009 (ip), vehicle: saline with Tween-80
[9] = dose: 100.0 mg/kg/injection, schedule: Q01DX009 (ip), vehicle: saline with Tween-80
[10] = dose: 200.0 mg/kg/injection, schedule: Q01DX009 (ip), vehicle: saline with Tween-80
[11] = dose: 400.0 mg/kg/injection, schedule: Q01DX009 (ip), vehicle: saline with Tween-80
[12] = dose: 100.0 mg/kg/injection, schedule: Q04DX003 (ip), vehicle: Klucel (hydroxypropylcellulose) (HPC)
[13] = dose: 200.0 mg/kg/injection, schedule: Q04DX003 (ip), vehicle: Klucel (hydroxypropylcellulose) (HPC)
[14] = dose: 3.12 mg/kg/injection, schedule: Q01DX009 (ip), vehicle: water
[15] = dose: 6.25 mg/kg/injection, schedule: Q01DX009 (ip), vehicle: water
[16] = dose: 12.5 mg/kg/injection, schedule: Q01DX009 (ip), vehicle: water
[17] = dose: 50.0 mg/kg/injection, schedule: Q01DX009 (ip), vehicle: water
[18] = dose: 100.0 mg/kg/injection, schedule: Q01DX009 (ip), vehicle: water
[19] = dose: 50.0 mg/kg/injection, schedule: Q01DX005 (ip), vehicle: saline with Tween-80
[20] = dose: 100.0 mg/kg/injection, schedule: Q01DX005 (ip), vehicle: saline with Tween-80
[21] = dose: 200.0 mg/kg/injection, schedule: Q01DX005 (ip), vehicle: saline with Tween-80
[22] = dose: 6.25 mg/kg/injection, schedule: Q01DX009 (ip), vehicle: saline with Tween-80
[23] = dose: 12.5 mg/kg/injection, schedule: Q01DX009 (ip), vehicle: saline with Tween-80
[24] = dose: 400.0 mg/kg/injection, schedule: Q04DX003 (ip), vehicle: saline with Tween-80

SMILES: COc1cc[n+]([O-])cc1/C=C/c1c[n+]([O-])ccc1OC
- T/C [1]: 94 % of control
- T/C [2]: 119 % of control
- T/C [3]: 103 % of control
- T/C [4]: 108 % of control

SMILES: CNC(=S)N/N=C\C(=N/NC(=S)NC)c1ccco1
- T/C (dose: 15.0 mg/kg/injection, schedule: Q01DX009 (ip), vehicle: saline with Tween-80): 100 % of control
- T/C (dose: 30.0 mg/kg/injection, schedule: Q01DX009 (ip), vehicle: saline with Tween-80): 98 % of control

SMILES: Cc1cc(NCCCCCCNc2cc(C)nc3ccc(N)cc23)c2cc(N)ccc2n1
- T/C (dose: 37.5 mg/kg/injection, schedule: Q04DX003 (ip), vehicle: saline): 163 % of control
- T/C (dose: 75.0 mg/kg/injection, schedule: Q04DX003 (ip), vehicle: saline): 159 % of control
- T/C (dose: 150.0 mg/kg/injection, schedule: Q04DX003 (ip), vehicle: saline): 218 % of control
- T/C (dose: 198.0 mg/kg/injection, schedule: Q04DX003 (ip), vehicle: Klucel (hydroxypropylcellulose) (HPC)): 213 % of control
- T/C [5]: 210 % of control
- T/C (dose: 300.0 mg/kg/injection, schedule: Q04DX003 (ip), vehicle: saline): 230 % of control and 213 % of control
- T/C [6]: 254 % of control
- T/C [7]: 250 % of control

SMILES: O=C(O)CCCCCCCCC(=O)O
- T/C [8]: 98 % of control
- T/C [9]: 98 % of control
- T/C [10]: 94 % of control
- T/C [11]: 93 % of control

SMILES: C=CCNC(=S)Nc1ccc(C)cc1
- T/C (dose: 50.0 mg/kg/injection, schedule: Q04DX003 (ip), vehicle: Klucel (hydroxypropylcellulose) (HPC)): 112 % of control
- T/C [12]: 104 % of control
- T/C [13]: 91 % of control

SMILES: c1ccc(Cn2ccnc2)cc1
- T/C [14]: 87 % of control
- T/C [15]: 92 % of control
- T/C [16]: 87 % of control
- T/C (dose: 25.0 mg/kg/injection, schedule: Q01DX009 (ip), vehicle: water): 99 % of control
- T/C [17]: 100 % of control
- T/C [18]: 86 % of control

SMILES: CC1(C)OC(C)(C)c2c1nnc(-c1ccccc1[N+](=O)[O-])[n+]2[O-]
- T/C [19]: 93 % of control
- T/C [20]: 88 % of control
- T/C [21]: 86 % of control

SMILES: CC(C)(O)c1cccc(C(=O)O)c1Sc1ccccc1
- T/C (dose: 100.0 mg/kg/injection, schedule: Q01DX001 (ip), vehicle: saline with Tween-80): 100 % of control
- T/C (dose: 200.0 mg/kg/injection, schedule: Q01DX001 (ip), vehicle: saline with Tween-80): 95 % of control
- T/C (dose: 400.0 mg/kg/injection, schedule: Q01DX001 (ip), vehicle: saline with Tween-80): 101 % of control

SMILES: CCCCNC(C)(C)C(SSSC(C)=O)c1ccco1 (stereo unspecified)
- T/C (dose: 3.12 mg/kg/injection, schedule: Q01DX009 (ip), vehicle: saline with Tween-80): 88 % of control
- T/C [22]: 111 % of control
- T/C [23]: 102 % of control
- T/C (dose: 25.0 mg/kg/injection, schedule: Q01DX009 (ip), vehicle: saline with Tween-80): 101 % of control and 102 % of control
- T/C [8]: 103 % of control

SMILES: O=C(O)CCC1(c2ccccc2)CCCC1=O (stereo unspecified)
- T/C (dose: 0.39 mg/kg/injection, schedule: Q01DX009 (ip), vehicle: water): 95 % of control
- T/C (dose: 0.39 mg/kg/injection, schedule: Q04DX003 (ip), vehicle: water): 104 % of control
- T/C (dose: 0.78 mg/kg/injection, schedule: Q01DX009 (ip), vehicle: water): 87 % of control and 122 % of control
- T/C (dose: 0.78 mg/kg/injection, schedule: Q04DX003 (ip), vehicle: water): 100 % of control
- T/C (dose: 1.56 mg/kg/injection, schedule: Q01DX009 (ip), vehicle: water): 101 % of control and 103 % of control
- T/C (dose: 1.56 mg/kg/injection, schedule: Q04DX003 (ip), vehicle: water): 97 % of control
- T/C [14]: 88 % of control
- T/C (dose: 3.12 mg/kg/injection, schedule: Q04DX003 (ip), vehicle: water): 97 % of control
- T/C [15]: 87 % of control and 101 % of control
- T/C [16]: 97 % of control
- T/C [17]: 87 % of control

SMILES: CN(C)c1ccc(/C=C/c2ccnc3ccc(I)cc23)cc1
- T/C [22]: 96 % of control
- T/C [23]: 119 % of control
- T/C [8]: 116 % of control

SMILES: O=[N+]([O-])c1cccc(Oc2ncccc2[N+](=O)[O-])c1
- T/C (dose: 65.0 mg/kg/injection, schedule: Q04DX003 (ip), vehicle: Klucel (hydroxypropylcellulose) (HPC)): 118 % of control
- T/C [12]: 109 % of control
- T/C (dose: 150.0 mg/kg/injection, schedule: Q04DX003 (ip), vehicle: Klucel (hydroxypropylcellulose) (HPC)): 109 % of control
- T/C [13]: 105 % of control
- T/C [6]: 115 % of control

SMILES: COc1cc(/C=N/NC(=O)C(=O)Nc2cccc(Cl)c2)cc(OC)c1O
- T/C [19]: 91 % of control
- T/C [20]: 100 % of control
- T/C [21]: 100 % of control

SMILES: CCS(=O)c1ncc2cnccn12 (stereo unspecified)
- T/C (dose: 12.5 mg/kg/injection, schedule: Q04DX003 (ip), vehicle: water): 109 % of control
- T/C (dose: 25.0 mg/kg/injection, schedule: Q04DX003 (ip), vehicle: water): 92 % of control
- T/C [17]: 102 % of control
- T/C (dose: 50.0 mg/kg/injection, schedule: Q04DX003 (ip), vehicle: water): 100 % of control and 101 % of control
- T/C [18]: 94 % of control

SMILES: CC(=O)c1nc2c(N)nc(N)nc2nc1C
- T/C [3]: 92 % of control
- T/C [4]: 111 % of control
- T/C [24]: 106 % of control

SMILES: Cc1cc2c(cc1C)C(=O)C(N1CCN(C)CC1)CCC2 (stereo unspecified)
- T/C [1]: 100 % of control
- T/C [2]: 104 % of control
- T/C [3]: 86 % of control

SMILES: O=C(CSc1cc(-c2ccc(Cl)cc2)s[s+]1)c1ccccc1
- T/C [8]: 101 % of control
- T/C [9]: 109 % of control
- T/C [3]: 114 % of control
- T/C [10]: 113 % of control
- T/C [4]: 114 % of control
- T/C [11]: 113 % of control
- T/C [24]: 93 % of control

SMILES: CCCCOCN(COCCCC)C12CC3CC(CC(C3)C1)C2
- T/C [8]: 120 % of control

SMILES: Cc1ccc([N+](=O)[O-])cc1N=C=O
- T/C (dose: 12.5 mg/kg/injection, schedule: Q01DX009 (ip), vehicle: Klucel (hydroxypropylcellulose) (HPC)): 96 % of control
- T/C (dose: 25.0 mg/kg/injection, schedule: Q01DX009 (ip), vehicle: Klucel (hydroxypropylcellulose) (HPC)): 100 % of control
- T/C (dose: 50.0 mg/kg/injection, schedule: Q01DX009 (ip), vehicle: Klucel (hydroxypropylcellulose) (HPC)): 96 % of control
- T/C [12]: 91 % of control
- T/C [6]: 91 % of control

SMILES: Cn1nnnc1N/N=C/c1ccccc1
- T/C [3]: 110 % of control
- T/C [4]: 115 % of control
- T/C [24]: 100 % of control

SMILES: C/C=C/C[P+](C)(c1ccccc1)c1ccccc1
- T/C (dose: 0.2 mg/kg/injection, schedule: Q01DX009 (ip), vehicle: saline): 104 % of control
- T/C (dose: 0.4 mg/kg/injection, schedule: Q01DX009 (ip), vehicle: saline): 103 % of control
- T/C (dose: 0.8 mg/kg/injection, schedule: Q01DX009 (ip), vehicle: saline): 104 % of control

SMILES: O=C1c2ccccc2C(=O)N1CNc1cccc(NCN2C(=O)c3ccccc3C2=O)c1
- T/C (dose: 100.0 mg/kg/injection, schedule: Q01DX001 (ip), vehicle: saline): 100 % of control
- T/C (dose: 100.0 mg/kg/injection, schedule: Q04DX003 (ip), vehicle: saline): 104 % of control
- T/C (dose: 200.0 mg/kg/injection, schedule: Q01DX001 (ip), vehicle: saline): 100 % of control
- T/C [5]: 104 % of control
- T/C (dose: 400.0 mg/kg/injection, schedule: Q01DX001 (ip), vehicle: saline): 90 % of control
- T/C [7]: 100 % of control
